# “And” between values parts separate entries of the source, which are not always exact repeats. Equal values may be shown once.
# Columns and labels:
# Sprague-Dawley rats = experiment: CFA-induced paw radiant heat hypersensitivity; type: in vivo, rat; details: 30 mg/kg p.o.
# Protocol: Intraplantar injection of Complete Freund's Adjuvant (CFA) in rodents results in a long-lasting inflammatory reaction, characterized by a pronounced hypersensitivity to both thermal and mechanical stimuli. This hypersensitivity peaks between 24-72 hours following injection and can last for several weeks. […] This paradigm also may be conducted with a multiple dosing or a prophylactic dosing regime designed to alter the course of hyperalgesia development. This test predicts the analgesic, anti-allodynic and antihyperalgesic effect of numerous effective clinical agents, including NSAIDS such as acetaminophen, aspirin and ibuprofen, and opioids such as morphine.
# Each rat was placed in a test chamber on a warm glass surface and allowed to acclimate for approximately 10 minutes. A radiant thermal stimulus (beam of light) was then focused through the glass onto the plantar surface of each hind paw in turn. The thermal stimulus was automatically shut off by a photoelectric relay when the paw was moved or when the cut-off time was reached (20 seconds for radiant heat at ˜5 Amps). An initial (baseline) response latency to the thermal stimulus was recorded for each animal prior to the injection of CFA. Twenty-four hours following intraplantar CFA injection, the response latency of the animal to the thermal stimulus was then re-evaluated and compared to the animal's baseline response time. […] Immediately following the post-CFA latency assessment, test compound or vehicle (usually Solutol, hydroxypropyl methylcellulose, hydroxypropyl beta-cyclodextrin or PEG-400) was administered i.p. or p.o. to rats. […] The percent reversal (% R) of hypersenstivitiy was calculated according to the following formula: % Reversal=(Treatment Response−CFA Response)/(Baseline Response−CFA Response)×100.
# canine TRPM8 [1] = biological target: T1, canine TRPM8 (Canis lupus familiaris, UniProt Q1A7N1); experiment: In vitro canine TRPM8 functional assay (Ca2+-sensitive dye, icilin activation; Table 4 TRPM8 Screening); type: cell-based; details: HEK293 cells expressing canine TRPM8, icilin activation; for % I (0.5 μM): compound at 0.5 μM
# T1 construct: expressed in transfected cells
# T1 sequence (Q1A7N1 1-1104): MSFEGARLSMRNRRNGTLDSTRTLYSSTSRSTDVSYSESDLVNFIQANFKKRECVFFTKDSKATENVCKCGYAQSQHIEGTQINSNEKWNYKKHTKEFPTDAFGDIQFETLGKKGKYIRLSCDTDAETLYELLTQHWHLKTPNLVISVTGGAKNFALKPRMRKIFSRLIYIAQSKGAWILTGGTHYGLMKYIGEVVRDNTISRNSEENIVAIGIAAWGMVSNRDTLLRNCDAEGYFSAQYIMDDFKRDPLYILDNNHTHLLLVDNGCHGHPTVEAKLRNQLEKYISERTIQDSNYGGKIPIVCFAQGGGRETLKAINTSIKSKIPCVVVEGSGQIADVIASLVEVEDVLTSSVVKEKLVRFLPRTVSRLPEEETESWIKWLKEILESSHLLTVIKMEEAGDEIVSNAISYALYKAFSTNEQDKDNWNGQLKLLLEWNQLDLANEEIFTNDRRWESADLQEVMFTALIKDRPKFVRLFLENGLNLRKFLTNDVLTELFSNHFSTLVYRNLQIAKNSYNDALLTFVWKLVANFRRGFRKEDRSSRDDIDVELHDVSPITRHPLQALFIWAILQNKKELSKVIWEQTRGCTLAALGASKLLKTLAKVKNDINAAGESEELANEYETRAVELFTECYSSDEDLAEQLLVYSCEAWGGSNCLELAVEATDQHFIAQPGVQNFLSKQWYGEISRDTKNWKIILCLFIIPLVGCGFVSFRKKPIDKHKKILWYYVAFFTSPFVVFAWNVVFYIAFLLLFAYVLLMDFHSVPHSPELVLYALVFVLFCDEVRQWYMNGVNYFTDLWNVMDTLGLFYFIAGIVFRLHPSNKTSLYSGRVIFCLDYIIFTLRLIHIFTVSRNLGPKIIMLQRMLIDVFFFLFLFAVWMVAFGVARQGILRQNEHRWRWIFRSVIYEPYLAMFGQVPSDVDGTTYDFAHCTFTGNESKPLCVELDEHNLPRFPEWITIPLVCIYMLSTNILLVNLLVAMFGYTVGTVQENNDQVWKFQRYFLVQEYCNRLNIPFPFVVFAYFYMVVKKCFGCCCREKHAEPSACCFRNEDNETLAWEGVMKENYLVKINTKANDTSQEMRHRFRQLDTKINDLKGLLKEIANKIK
# Protocol: The functional activity of compounds of Formula (I) was determined by measuring changes in intracellular calcium concentration using a Ca^2+-sensitive fluorescent dye. The changes in fluorescent signal were monitored by a fluorescence plate reader, either a FLIPR™ (Molecular Devices) or FDSS (Hamamatsu).
# HEK293 cells stably expressing canine TRPM8 were routinely grown as monolayers in Dulbecco's minimum essential medium supplemented with 10% FBS, 1 mM L-glutamine, 100 units/mL penicillin, 100 ug/mL streptomycin and 400 μg/mL G418. Cells were maintained in 5% CO2 at 37° C. At 24 hrs prior to assay, cells were seeded in clear-base poly-D-lysine coated 384-well plates (BD Biosciences, NJ, USA) at a density of 5,000 cells per well in culture medium and grown overnight in 5% CO2 at 37° C. On assay day, growth media was removed and cells were loaded with Calcium 3 Dye (Molecular Devices) for 35 min at 37° C., under 5% CO2 and then for 25 min at room temperature and atmosphere. Subsequently, cells were tested for agonist-induced increases in intracellular Ca^2+ levels using FLIPR™ or FDSS. Cells were challenged with a compound of Formula (I) (at varying concentrations) and intracellular Ca^2+ was measured for 5 min prior to the addition of icilin to all wells to achieve a final concentration which produces approximately an 80% maximal response.
# Basal FI was subtracted prior to normalizing data to percent of maximal response. Curves were generated using the average of quadruplicate wells for each data point, were analyzed using nonlinear regression of either sigmoidal dose response or sigmoidal dose response (variable slope). Finally, the EC50 and IC50 values were calculated with the best-fit dose curve determined by GraphPad Prism.
# canine TRPM8 [2] = biological target: T1, canine TRPM8; experiment: TRPM8 patch clamp assays; type: cell-based; details: whole-cell patch clamp, HEK293
# Protocol: For patch clamp experiments, HEK293 cells stably transfected with canine TRPM8 were cultured in DMEM supplemented with 10% fetal bovine serum, 100 units/ml penicillin, 100 μg/ml streptomycin and 1 mg/ml G418. Cells were maintained at 37° C. and in 5% CO2.
# The extracellular solution contained (in mM): NaCl, 132; EGTA, 1; KCl, 5.4; MgCl2, 0.8; HEPES, 10; glucose, 10; pH=7.4. Recordings were performed using the conventional whole-cell patch clamp technique, 1-2 days after plating cells onto glass coverslips at densities appropriate for single cell recording. Currents were amplified by a patch clamp amplifier and filtered at 2 kHz (Axopatch 200B, Molecular Devices, Union City, Calif.). Menthol (100 μM) was applied to the cell at 0.5 ml/min via a gravity-fed perfusion system. […]
# In experiments where temperatures were varied, temperature ramps were generated by cooling the perfusate in an in-line cooler (Model SC-20, Warner Instruments, Hamden, Conn.) controlled by a temperature controller (Model CL-100, Warner Instruments). The temperature in the vicinity of the recorded cell was measured with a custom-made miniature thermo-microprobe connected to a monitoring thermometer (Model TH-8, Physitemp, Clifton, N.J.), and sampled using Digidata 1322A and pClamp 9.0 (Molecular Devices), as were the currents concurrently measured in the whole-cell patch clamp mode. […]
# rats = experiment: Reversal of icilin-induced behaviors in rats; type: in vivo, rat; details: 30 mg/kg p.o., 1 h post-icilin
# Protocol: In this paradigm, icilin-induced shaking was counted for 10 minutes followed by administration of a compound of Formula (I). The diminution of shaking behavior is represented as a percent inhibition relative to icilin-induced shakes in the absence of test compound administration, as described by the following formula: % Inhibition=[1−(WDS count following test compound dose/WDS count prior to test compound dose)]×100.
# male SD rats = experiment: Chronic constriction injury (CCI)-induced model of neuropathic pain, acetone-induced hypersensitivity; type: in vivo, rat; details: 30 mg/kg p.o., preRx 1 hr
# Protocol: Through the mesh floor a series of five applications of acetone (0.05 mL/application) was sprayed onto the bottom of the paw using a multidose syringe device. A positive response took the form of an abrupt withdrawal or lifting of the paw. The percentage of positive responses from the five trials represented the individual's overall response that was then averaged over the entire treatment group. […] An ascending dose response relationship (as in Table 10 below) was generated by addition of successive doses of test compound followed by re-assessment of behavior.
compound,measurement,setting,value
CCOP(=O)(OCC)C(Cc1ccc(F)c(C(F)(F)F)c1)c1sc2ccccc2c1Cl (racemic) [Cpd 298],% Reversal,Sprague-Dawley rats; time 1 h,20%
same,% I (0.5 μM),canine TRPM8 [1],99%
CC(C)OP(=O)(OC(C)C)C(Cc1ccc(F)cc1)c1sc2ccccc2c1Br (centres unmarked) [Cpd 197],% Reversal,Sprague-Dawley rats; time 2 h,23%
same,% I (1 μM),canine TRPM8 [1]; compound at 1 μM,100%
CC(C)OP(=O)(OC(C)C)C(Cc1cc(C(F)(F)F)ccc1F)c1sc2ccccc2c1Br (centres unmarked) [Cpd 335],% Reversal,Sprague-Dawley rats; time 1 h,0%
CC(C)OP(=O)(OC(C)C)C(Cc1ccc(C(F)(F)F)cc1)c1sc2ccccc2c1Br (centres unmarked) [Cpd 336],% Reversal,Sprague-Dawley rats; time 1 h,64%
(S)-[1-(3-Bromo-benzo[b]thiophen-2-yl)-2-(4-fluoro-phenyl)ethyl]-phosphonic acid diisopropyl ester [Cpd 239],IC50,"canine TRPM8 [2]; read-out: Cold (10° C.) IC50, mode of activation cold 10° C.",5.8 nM
same,IC50,"canine TRPM8 [2]; read-out: Menthol (100 μM) IC50, mode of activation menthol 100 μM, 22° C.",3 nM
same,% Reversal,Sprague-Dawley rats; time 2 h,36%
same,% Inhibition,rats,48.4%
same,% I (0.5 μM),canine TRPM8 [1],"103, 103%"
same,IC50,canine TRPM8 [1]; eight-point dose-response,37 nM and 27 nM and 31 nM
same,% of Allodynic Baseline,male SD rats,29.4%
(S)-[1-(3-Bromo-benzo[b]thiophen-2-yl)-2-(4-trifluoromethoxy-phenyl)-ethyl]-phosphonic acid diisopropyl ester [Cpd 236],% Reversal,Sprague-Dawley rats; time 2 h,25%
